Assay results as given in patent EP0565593B1, “REDUCING PESTICIDAL INTERACTIONS IN CROPS” (priority 1990, dated 1992).
Where “and” joins values, the source holds several entries; their conditions need not be identical. Equal entries are not always repeated. Where two headings read alike, the source gives them in different places.

Tests used:
Shattercane (SHCA) = type: in vivo
Velvetleaf (VELE) = type: in vivo, Abutilon theophrasti
Corn [1] = conditions: for activity in reducing corn injury: primisulfuron POE + biocides PPI, Tables 8-10; for antidote activity: COUNTER with BEACON, PURSUIT (POE) or XRD-498 (PPI), Tables 29-37
Giant foxtail (GIFT) = assay: whole plant or invertebrate; type: in vivo; conditions: for % Inhibition GIFT: in vivo
Corn [2] = assay: Greenhouse test Procedure VII: biocide and antidote in furrow, herbicide POE (Examples 39-42, 48-50, 56-58; Tables 38-41, 47-49, 55-57); type: in vivo; conditions: for % Inhibition Corn: C (COUNTER) + antidote in furrow
Excerpt: This procedure describes interaction among herbicide, biocide and antidote when the biocide and the antidote is applied to a soil furrow containing crop seed before emergence of the crop and the herbicide is applied after emergence of the crop and weeds. The soil and planting depth was described in Procedure IV. The containers for comparison, the biocide and antidote applications to soil furrows were described in Procedure VI. In this procedure, the seed beds of the first, second, third and fourth containers are covered by soil layers not treated with herbicide. The containers were then placed on a bench in a greenhouse and subirrigated as required for the duration of the test. The herbicide, dispersed or dissolved in water containing 0.25% v/v nonionic surfactant (X-77) was applied by a track sprayer (187 L/ha) to the emerged plants of the second, third and fourth containers about five days after planting. All treatments were run in duplicate. Plant response was observed according to Procedure IV. Variations in this procedure will be noted in the examples.
In this example, tests were conducted according to Procedure VII for the POE application of the herbicides following in-furrow application of COUNTER® 15G insecticide (BIOCIDE No. 1) and the antidote on the pre-planted test seeds. In this test, the herbicides were Nos. 1 (MON-12000), 10 (ALLY®) and #4 (HARMONY®) and the Antidote Nos. 1, 7, 12 and 33.
These in-furrow treatments comprised a 50-50 mix of blended granules of COUNTER with and without 5G granular antidotes at 7.4 + 7.4 mg/cm or 1.1 + 0.37 mg active ingredient (a.i.)/cm. The in-furrow initiation of the test was followed five (5) days later with POE application of the herbicides; observations were made eight (8) days later.
In another test, conducted simultaneously with that in Example 39, Herbicide Nos. 5 (chlorimuron ethyl, active ingredient in CLASSIC® herbicide), 7 (nicosulfuron, active ingredient in ACCENT® herbicide) and 15 (tribenuron methyl, active ingredient in EXPRESS® herbicide) were substituted as test herbicides.
In this example, using the same procedure as above, the following imidazolinone herbicides were used with the same insecticide/biocide and antidotes as above: Herb. No. 16 (imazaquin, a.i. in SCEPTER® herbicide; No. 19 (Code No. AC 222293, a.i. in ASSERT® herbicide); No. 6 (imazethapyr, a.i. in PURSUIT® herbicide and No. 18 (imazapyr, a.i. in ARSENAL® herbicide). Test results are shown in Table 40. Table 40
This example describes the testing of the above antidotes used in Examples 39-41 to safen negative synergy interactions between representative species of the class of herbicidal compounds identified as azolopyrimidine sulfonamides and COUNTER 15G. The same procedure used in the above examples was conducted in this test. In this test, the herbicides were formulated in 17% acetone and 83% water with 0.25% v/v X-77 surfactant.
In these tests (according to Procedure VII) the safeners in solution with acetone were applied in furrow to the soil, followed by COUNTER 15G granules at 227 g/305 m (8 oz./1000'). Applications were made in alternate rows in two separate 13.7 cm x 27.7 cm pans containing Dupo silt loam. Pans were seeded 1.3 cm deep, placed on benches in a greenhouse and subirrigated. BEACON was formulated in water with 0.25% v/v X-77 surfactant and applied by track sprayer at a rate of 187 L/Ha (20 gal/A). Weed species in this test were giant foxtail, shattercane and velvetleaf. The herbicide was applied five (5) days after PPI initiation and observation of test result (shown in Table 47) made eight (8) days later.
In Table 47 COUNTER 15G is abbreviated as "C" and the antidotes as "A" in the column headings which indicate the "C + A" ratios used in the tests. Control and COUNTER treatments are average of four (4) replications and COUNTER + Antidote treatments, average of 2 reps. […]

Corn [3] = assay: Greenhouse test, combination of Procedures II and III: insecticide in-furrow or in cover layer, herbicide and antidote incorporated in cover layer (Examples 1-3, 6; Tables 1-3, 6); type: in vivo; conditions: 3 weeks
Corn [4] = test system: Corn
[5] = Antidote 4.48 + Biocide No. 1 8.96 Kg/Ha PPI, Herb. No. 8 0.07, 5 DAP, before herbicide application
[6] = Antidote 4.48 + Biocide No. 1 8.96 Kg/Ha PPI, Herb. No. 8 0.07 POE, 13 DAP
[7] = Antidote 4.48 + Biocide No. 1 8.96 Kg/Ha PPI, Herbicide No. 7 0.28 POE, 13 days after planting
[8] = Table 14: Herbicide No. 7 (ACCENT) 0.84 Kg/Ha POE + Biocide No. 2 8.96 Kg/Ha PPI + antidote 4.48 Kg/Ha PPI, 13 days after planting, 8 days after herbicide
[9] = […], 13 days after planting, 8 days after herbicide
[10] = […], observed 10 days after herbicide application
[11] = Herb. […], 5 DAP, before herbicide application
[12] = C:A Ratio 20, ACCENT 0.56 Kg/Ha POE
[13] = C:A Ratio 20, BEACON 0.28 Kg/Ha POE
[14] = C:A Ratio 40, ACCENT 0.56 Kg/Ha POE
[15] = C:A Ratio 40, BEACON 0.28 Kg/Ha POE
[16] = C:A Ratio 80, ACCENT 0.56 Kg/Ha POE
[17] = C:A Ratio 80, BEACON 0.28 Kg/Ha POE
[18] = C:A Ratio 160, ACCENT 0.56 Kg/Ha POE
[19] = C:A Ratio 160, BEACON 0.28 Kg/Ha POE

## C=CCC(C)(C#N)Sc1ccc(C)cc1 (stereo not shown) [compound 32]
Shattercane (SHCA); [5]
  % Inhibition 5 DAP SHCA: 30%
Shattercane (SHCA); [6]
  % Inhibition 13 DAP SHCA: 85%
Shattercane (SHCA); [7]
  % Inhibition SHCA: 70%
Shattercane (SHCA); [8]
  % Inhibition SHCA: 70%
Shattercane (SHCA); [9]
  % Inhibition SHCA: 95%
Shattercane (SHCA); [10]
  % Inhibition SHCA: 50%
Shattercane (SHCA); in vivo
  % Inhibition 5 DAP SHCA: 30%
  % Inhibition 13 DAP SHCA: 80%
Velvetleaf (VELE); [5]
  % Inhibition 5 DAP VELE: 0%
Velvetleaf (VELE); [6]
  % Inhibition 13 DAP VELE: 90%
Velvetleaf (VELE); [7]
  % Inhibition VELE: 65%
Velvetleaf (VELE); [11]
  % Inhibition 5 DAP VELE: 0%
Velvetleaf (VELE); [8]
  % Inhibition VELE: 60%
Velvetleaf (VELE); [9]
  % Inhibition VELE: 70%
Velvetleaf (VELE); [10]
  % Inhibition VELE: 80%
Velvetleaf (VELE); in vivo
  % Inhibition 5 DAP VELE: 0%
  % Inhibition 13 DAP VELE: 85%
Corn [1]; [5]
  % Inhibition 5 DAP Corn: 0%
Corn [1]; [6]
  % Inhibition 13 DAP Corn: 75%
Corn [1]; [7]
  % Inhibition Corn: 55%
Corn [1]; [11]
  % Inhibition 5 DAP Corn: 0%
Corn [1]; [8]
  % Inhibition Corn: 35%
Corn [1]; [9]
  % Inhibition Corn: 25%
Corn [1]; [10]
  % Inhibition Corn: 70%
Corn [1]; in vivo
  % Inhibition 5 DAP Corn: 20%
  % Inhibition 13 DAP Corn: 70%
  % Inhibition Corn: 65% and 55% and 45%
Corn [1]
  activity in reducing corn injury: either inactive or weakly active

## CCSC(=O)COC(c1ccccc1)c1ccccc1 [Antidote No. 51, Ethanethioic acid, 2-(diphenyl-methoxy)-, S-ethyl ester]
Corn [1]
  antidote activity: most active

## Clc1cc(Cl)nc(-c2ccccc2)n1 [compound 31]
Shattercane (SHCA); [5]
  % Inhibition 5 DAP SHCA: 0%
Shattercane (SHCA); [6]
  % Inhibition 13 DAP SHCA: 80%
Shattercane (SHCA); [7]
  % Inhibition SHCA: 75%
Shattercane (SHCA); [11]
  % Inhibition 5 DAP SHCA: 0%
Shattercane (SHCA); [8]
  % Inhibition SHCA: 75%
Shattercane (SHCA); [9]
  % Inhibition SHCA: 85%
Shattercane (SHCA); [10]
  % Inhibition SHCA: 65%
Shattercane (SHCA); in vivo
  % Inhibition 5 DAP SHCA: 20%
  % Inhibition 13 DAP SHCA: 80%
  % Inhibition SHCA: 85% and 50% and 60% and 45%
Velvetleaf (VELE); [5]
  % Inhibition 5 DAP VELE: 0%
Velvetleaf (VELE); [6]
  % Inhibition 13 DAP VELE: 85%
Velvetleaf (VELE); [7]
  % Inhibition VELE: 65%
Velvetleaf (VELE); [11]
  % Inhibition 5 DAP VELE: 0%
Velvetleaf (VELE); Herb. […], 13 DAP, after herbicide application
  % Inhibition 13 DAP VELE: 95%
Velvetleaf (VELE); [8]
  % Inhibition VELE: 65%
Velvetleaf (VELE); [9]
  % Inhibition VELE: 65%
Velvetleaf (VELE); [10]
  % Inhibition VELE: 80%
Velvetleaf (VELE); in vivo
  % Inhibition 5 DAP VELE: 0%
  % Inhibition 13 DAP VELE: 85%
Giant foxtail (GIFT)
  % Inhibition GIFT: 55% and 80% and 85% and 75% and 95% and 60%
Corn [1]; [5]
  % Inhibition 5 DAP Corn: 10%
Corn [1]; [6]
  % Inhibition 13 DAP Corn: 75%
Corn [1]; [7]
  % Inhibition Corn: 65%
Corn [1]; [11]
  % Inhibition 5 DAP Corn: 0%
Corn [1]; [8]
  % Inhibition Corn: 45%
Corn [1]; [9]
  % Inhibition Corn: 30%
Corn [1]; [10]
  % Inhibition Corn: 70%
Corn [1]; in vivo
  % Inhibition 5 DAP Corn: 15%
  % Inhibition 13 DAP Corn: 65%
Corn [1]
  activity in reducing corn injury: either inactive or weakly active

## O=C1OC(=O)c2cccc3cccc1c23 [Antidote No. 5, 1H,3H-Naphtho<1,8-cd>pyran-1,3-dione]
Giant foxtail (GIFT); XRD-498 + OP insecticides, Examples 24-27
  giant foxtail control: reduction in giant foxtail control

## O=C(O)COC(c1ccccc1)c1ccccc1 [compound 79]
Corn [2]; [12]
  % Inhibition Corn: 15%
Corn [2]; [13]
  % Inhibition Corn: 0%
Corn [2]; [14]
  % Inhibition Corn: 20%
Corn [2]; [15]
  % Inhibition Corn: 5%
Corn [2]; [16]
  % Inhibition Corn: 30%
Corn [2]; [17]
  % Inhibition Corn: 15%
Corn [2]; [18]
  % Inhibition Corn: 45%
Corn [2]; [19]
  % Inhibition Corn: 20%

## Cc1c(F)c(F)c(COC(=O)[C@@H]2[C@H](/C=C(\Cl)C(F)(F)F)C2(C)C)c(F)c1F (racemic) [Biocide No. 3, 2,3,5,6-tetrafluoro-4-methylbenzyl-(Z(-(1 RS, 3RS)-3-(2-Chloro-3,3,3-trifluoroprop-1-ethyl)-2,2-dimethyl-cyclopropane carboxylate, reference compound]
Corn [3]; Ex. 3: Insecticide 3 (227g) alone
  % Injury Corn: 3%

## O=C(OCc1ccccc1)c1sc(Cl)nc1C(F)(F)F [compound 7]
Velvetleaf (VELE); [9]
  % Inhibition VELE: 65%
Velvetleaf (VELE); […], observed 7 days after POE (Table 35)
  % Inhibition VELE: 75%

## N#CCON=C(C#N)c1ccccc1 [Antidote No. 9, Benzeneacetonitrile, alpha-<(cyano-methoxy)imino>-]
Corn [1]
  antidote activity: active safeners

## O=C(C(Cl)Cl)N1CCOC12CCCCC2 [Antidote No. 16, 1-Oxa-4-azaspiro<4.5>decane, 4-(dichloroacetyl)-]
Corn [2]; COUNTER 15G + BEACON/co-herbicide combinations, Example 56
  corn injury: reduced corn injury
Corn [2]; COUNTER 15G/BEACON, Example 48
  safening, comparison: not as active as the other safeners
Corn [2]; COUNTER/BEACON (and ACCENT), Examples 49, 50
  protecting corn, comparison: weak in safening effect

## CCOP(=S)(OCC)SCSCC [Biocide No. 10, O,O-Diethyl S-[(ethylthio)methyl]phosphorodithioate, reference compound]
Shattercane (SHCA); in vivo
  % Inhibition SHCA: 25%
Giant foxtail (GIFT)
  % Inhibition GIFT: 30% and 20%

## CNC(=O)Oc1cccc2c1OC(C)(C)C2 [Biocide No. 4, 2,3-Dihydro-2,2-dimethyl-7-benzofuranyl methylcarbamate, reference compound]
Corn [3]; Ex. 3: Insecticide 4 (227 g) alone
  % Injury Corn: 5%

## CC1COc2ccccc2N1C(=O)C(Cl)Cl (stereo not shown) [Antidote No. 28, 4-(Dichloroacetyl)-3,4-dihydro-3-methyl-2H-1,4-benzoxazine]
Corn [1]; Example 29, COUNTER with BEACON and ACCENT
  safening, comparison: comparable to MON-13900 (No. 1), but less effective than MON-7400
Corn [4]; DIAZINON + Herbicides 1, 21, 18, Example 53
  safening: Effective safening
Corn [4]; malathion + Herbicides 1, 21, 18, Example 54
  safening: moderate to high degrees of safening

## O=C(O)c1sc(Cl)nc1C(F)(F)F [Antidote No. 65, 5-Thiazolecarboxylic acid, 2-chloro-4-(trifluoromethyl)-]
Corn [1]
  antidote activity: slightly more active than other thiazoles tested

## O=C(O)COC(c1ccccc1)c1ccccc1 [compound 78]
Corn [2]; [12]
  % Inhibition Corn: 25%
Corn [2]; [13]
  % Inhibition Corn: 5%
Corn [2]; [14]
  % Inhibition Corn: 20%
Corn [2]; [15]
  % Inhibition Corn: 5%
Corn [2]; [16]
  % Inhibition Corn: 40%
Corn [2]; [17]
  % Inhibition Corn: 20%
Corn [2]; [18]
  % Inhibition Corn: 60%
Corn [2]; [19]
  % Inhibition Corn: 20%
